Measurements: article PMC10871122, “Synthesis and In Vitro Evaluation as Potential Anticancer and Antioxidant Agents of Diphenylamine-Pyrrolidin-2-one-Hydrazone Derivatives” (International Journal of Molecular Sciences, 2023)

Key:
[1] = test system: human melanoma IGR39 cell line; test: MTT cell viability assay, melanoma IGR39; type: cell-based; conditions: for effect on cell viability compared among the cell lines: 100 µM; for effect on cell viability compared among the cell lines / EC50: 72 h, MTT; for selectivity towards cancer cells compared to fibroblasts: IGR39 (melanoma) vs fibroblasts; for EC50: Homo sapiens, IGR-39, IGR39
Description: (§1) The human malignant melanoma cell line IGR39, human triple-negative breast cancer MDA-MB-231, and human pancreatic carcinoma cell line Panc-1 were obtained from the American Type Culture Collection (ATCC, Manassas, VA, USA). Human foreskin fibroblasts (HF) CRL-4001 were originally obtained from ATCC and kindly provided by Prof. Helder Santos (University of Helsinki, Finland). Primary prostate carcinoma PPC-1 cell line was kindly provided by Prof. Tambet Teesalu (University of Tartu, Estonia). All cell lines were cultured in Dulbecco’s Modified Eagle’s GlutaMAX medium (Gibco (Carlsbad, CA, USA)), supplemented with 10,000 U/mL penicillin, 10 mg/mL streptomycin (Gibco), and 10% fetal bovine serum (Gibco). Cell cultures were grown at 37 °C in a humidified atmosphere containing 5% CO2. They were used until the passage of 20.
(§2) The effect of synthesized compounds on cell viability was studied using 3-(4,5-dimethylthiazol-2-yl)-2,5-diphenyltetrazolium bromide (MTT; Sigma-Aldrich Co., St Louis, MO, USA) assay, as described elsewhere. To summarize, the cells were seeded in triplicates in 96-well Corning plates (IGR39, MDA-MB-231, Panc-1 and PPC1: 4 × 10^3 cells/well; HF: 5 × 10^3 cells/well). The cells were treated with 100 μM of tested compounds after 24 h of incubation. After 72 h, the MTT reagent was added and the formazan crystals that had formed were dissolved in DMSO (Sigma-Aldrich Co., St. Louis, MO, USA). The absorbance was determined with a multidetection microplate reader at 570 and 630 nm.
(§3) The compound serial dilutions ranging from 50 µM to 1.56 µM were introduced to the cells. The Hill equation was used to calculate the EC50 value, or the concentration of a compound that results in a 50% reduction in the metabolic activity of cells.

[2] = test system: prostate carcinoma PPC-1 cell line; test: MTT cell viability assay, prostate carcinoma PPC-1; type: cell-based, human
Description: as §1, §2, §3

[3] = test system: IGR39 spheroids (cancer cells with fibroblasts 1:1); test: 3D culture: IGR39 spheroid size and viability (WST-1); type: cell-based, human; conditions: for effect on spheroid growth / size: 5 and 10 µM, 8 days
Experimental: (§4) Spheroids were made of cancer cells combined with fibroblast in a 1:1 ratio to better represent the real tumor microenvironment.
(§5) The magnetic 3D Bioprinting method was utilized to form cancer cell spheroids as described elsewhere. In short, the cells at 70% confluency were incubated with Nanoshuttle (n3D Biosciences, Inc., Houston, TX, USA) for 8 h. After that, the cells were trypsinized, centrifuged and seeded into ultra-low attachment 96-well plate at a ratio of 1.5 × 10^3 cancer cells and 1.5 × 10^3 human fibroblasts/well. The plate was incubated for two days at 37 °C in a humidified atmosphere on a magnetic drive. Next, the medium with 5 and 10 µM of selected compounds was added. Photos of spheroids were taken every two days using an Olympus IX73 inverted microscope (OLYMPUS CORPORATION, Tokyo, Japan), and analysis of spheroid size was performed using ImageJ, version 1.53o (National Institutes of Health, Bethesda, MD, USA) and Microsoft Office Excel 2016 software (Microsoft Corporation, Redmond, WA, USA).
(§6) On the last day of experiment, 10 µL of WST-1 reagent (Sigma-Aldrich Co, St. Louis, MO, USA) was added to each well. Following 10-h incubation, 50 µL of liquid from each well was moved to another 96-well plate and the absorbance was measured at 460 and 530 nm.

[4] = test system: PPC-1 spheroids (cancer cells with fibroblasts 1:1); test: 3D culture: PPC-1 spheroid size and viability (WST-1); type: cell-based, human; conditions: 5 and 10 µM, 8 days
Experimental: as §4, §5, §6

[5] = test system: tested cancer cell lines (IGR39, PPC-1, MDA-MB-231, Panc-1); test: MTT cell viability assay, statements on the tested cancer cell lines together; type: cell-based, human; conditions: Homo sapiens; against IGR39 and PPC-1 cell lines
Experimental: as §2, §3

[6] = test system: PPC-1 cell migration; test: 'Wound healing' migration assay, PPC-1; type: cell-based, human; conditions: 72 h of incubation
Experimental: (§7) Cancer cells were seeded at a density of 6 × 10^4 cells/well in 24-well plates. After 48 h of incubation, a 100 µL pipette tip was used to make the scratch in each well. Following a single PBS wash, the fresh medium containing 2 and 5 µM of compounds 5, 6, 13, and 14 was added to the cells. As a negative control, medium containing 0.1% DMSO was employed.

[7] = Ferric reducing antioxidant power (FRAP) assay
Description: The ferric reducing antioxidant power (FRAP) assay was used to evaluate the antioxidant potential of new compounds 2–17. Antioxidant assays are based on determining reduction power reactions (e.g., reduction Fe^3+ to Fe^2+) or scavenging free radicals (DPPH, ABTS). The FRAP assay is based on the method of single electron transfer (SET), measuring the reduction in the complex of ferric ions (Fe^3+)-ligand to the blue ferrous complex (Fe^2+). This method uses 2,4,6-tripyridyl-s-triazine (TPTZ) as the linking ligand to the iron. The antioxidant activity of the synthesized compounds was compared with that of the well-known antioxidant protocatechuic acid. […] PCA is a building block for pharmaceuticals and is widely used to produce many medicinal products such as veratridine (sodium channel inactivation inhibitor), erlotinib (antineoplastic), Picatin II (treatment of hepatitis B), itopride hydrochloride (gastrointestinal motility drug). PCA can also cause the induction of apoptosis of human leukemia cells. Moreover, the antioxidant activity of PCA is based on the reduction in free radical formation via the up-regulation of genes encoding enzymes with neutralizing activities.
Antioxidant activity was determined as an increase in absorbance at 593 nm, and the results were expressed as of Fe^2+ μmol/L and in relation to antioxidants, and protocatechuic acid, as positive control. The FRAP reagent contained 2.5 mL of 10 mM TPTZ solution in 40 mM HCl as well as 2.5 mL of FeCl3 (20 mM) and 25 mL of acetate buffer (0.3 M, pH = 3.6). Then, 100 μL of analyzed compounds (20 mM) were mixed with 3 mL of the FRAP reagent. The absorbance of the reaction mixture was measured spectrophotometrically at 593 nm using a UV-1280 UV-VIS spectrophotometer (Shimadzu Corporation, Kyoto, Japan). To compose the calibration curve, five concentrations of FeSO4·7H2O (5, 10, 15, 20, 25 μM) were used, and the absorbance was measured as a sample solution.

[8] = test system: human triple-negative breast cancer MDA-MB-231 cell line; test: MTT cell viability assay, MDA-MB-231; type: cell-based; conditions: 72 h; for EC50: Homo sapiens, MDA-MB-231
Description: as §1, §2, §3

[9] = test system: human pancreatic carcinoma Panc-1 cell line; test: MTT cell viability assay, Panc-1; type: cell-based
Description: as §1, §2, §3

[10] = test system: IGR39 cell migration; test: 'Wound healing' migration assay, IGR39; type: cell-based, human; conditions: 48 h of incubation; control 'wound' completely closed
Experimental: as §7

[11] = test system: Panc-1 cell migration; test: 'Wound healing' migration assay, Panc-1; type: cell-based, human; conditions: 72 h of incubation
Experimental: as §7

[12] = test system: melanoma cell; design: method as in PMID 21700700; conditions: cited from earlier work

| Compound | effect on cell viability compared among the cell lines [1] | effect on spheroid growth / size [3] | effect on spheroid viability compared to the control ([3]; WST-1, end of experiment) | effect on spheroid growth / size [4] | EC50 [5] | melting point | selectivity towards cancer cells compared to fibroblasts [1] | EC50 [1] | EC50 [8] | also measured |
| --- | --- | --- | --- | --- | --- | --- | --- | --- | --- | --- |
| O=C(NN=Cc1cc(Cl)ccc1O)C1CC(=O)N(c2ccc(Nc3ccccc3)cc2)C1 (stereo not drawn) [Compound 5, N′-(5-chloro-2-hydroxybenzylidene)-5-oxo-1-(4-(phenylamino)phenyl)pyrrolidine-3-carbohydrazide] | strongest effect on melanoma cells | did not affect spheroid growth | statistically significant effect | did not affect spheroid growth | 2.5 to 20.2 µM | 223 to 224 °C |  |  |  | selectivity towards cancer cells compared to fibroblasts ([2]; prostate carcinoma vs fibroblasts): 3.6; spheroid cell viability (reduced up to) ([3]; WST-1, end of experiment): ~ 75% |
| O=C(NN=Cc1ccc(Cl)c(Cl)c1)C1CC(=O)N(c2ccc(Nc3ccccc3)cc2)C1 (stereo not drawn) [Compound 6, N′-(3,4-dichlorobenzylidene)-5-oxo-1-(4-(phenylamino)phenyl)pyrrolidine-3-carbohydrazide] | strongest effect on melanoma cells |  | statistically significant effect |  | 2.5 to 20.2 µM | 220 to 221 °C | 2.8 |  |  | effect on cell migration ([6]; higher concentration (5 µM)): inhibited; reducing power activity compared to the control antioxidant ([7]; vs protocatechuic acid): higher than those of known antioxidants used as the controls |
| O=C(NN=Cc1ccc([N+](=O)[O-])s1)C1CC(=O)N(c2ccc(Nc3ccccc3)cc2)C1 (stereo not drawn) [Compound 13, N′-((5-nitrothiophen-2-yl)methylene)-5-oxo-1-(4-(phenylamino)phenyl)pyrrolidine-3-carbohydrazide] | strongest effect on melanoma cells |  | statistically significant effect |  | 2.5 to 20.2 µM | 235 to 236 °C | 2.8 | 2.5 ± 0.46 µM | 5.1 ± 0.8 µM | EC50 ([2]; Homo sapiens, MTT, 72 h, PPC-1): 3.63 ± 0.45 µM; cell viability compared to the control (inhibited up to) ([8]; 100 µM): ~ 9%; cell viability compared to the control (inhibited up to) ([9]; 100 µM, 72 h, MTT): ~ 9%; EC50 ([9]; Homo sapiens, MTT, 72 h, Panc-1): 5.77 ± 0.8 µM; selectivity towards cancer cells compared to fibroblasts ([9]; Panc-1 vs fibroblasts): 1.2; 'wound' area [10]: 15.8 ± 8.8%; 'wound' area compared to the control (times larger) [6]: ~ 24 times; 'wound' area compared to the control (times larger) [11]: 7.5 times; FRAP reducing power (Fe^2+) ([7]; absorbance at 593 nm): 103.95 µmol/L |
| O=C(NN=Cc1c[nH]c2ccccc12)C1CC(=O)N(c2ccc(Nc3ccccc3)cc2)C1 (stereo not drawn) [Compound 14, N′-((1H-indol-3-yl)methylene)-5-oxo-1-(4-(phenylamino)phenyl)pyrrolidine-3-carbohydrazide] | strongest effect on melanoma cells | became somewhat larger |  | slightly reduced the growth | 2.5 to 20.2 µM | 238 to 239 °C |  | 10.4 ± 1.35 µM | 19.8 ± 1.86 µM |  |
| CN(C)/N=N/c1[nH]cnc1C(N)=O [dacarbazine] |  |  |  |  |  |  |  |  |  | concentration that inhibits melanoma cell proliferation [12]: 25 to 100 µM |
